Results taken from patent publication US20210115104A1, “AMYLIN ANALOGUES” (Zealand Pharma A/S, priority 2015, published 2021).
*1 amine or outer side, *2 acyl side, *3 side chain or, on linkers, in order; H or OH if unused. Where a SMILES comes first, the peptide text is derived from it. Bridges are numbered along the chain shown (N, C = ends). [ ]: non-standard residue; d: D form. The star is where a group is joined. C20 diacid = O=C(O)CCCCCCCCCCCCCCCCCCC(=O)*; γGlu = O=C(O)[C@H](CCC(=O)[*:2])N[*:1]; Hyp = O=C(O)[C@@H]1C[C@@H](O)CN1; NMeI = CC[C@H](C)[C@H](NC)C(=O)O; Orn = NCCC[C@H](N)C(=O)O; Sar = CNCC(=O)O

What was measured:
[1] = Assessment of chemical stability (RP-HPLC normalized purity); format: physicochemical; details: 7 days, 40° C., Table 1; for Normalized purity after 7 days, 40° C., pH 4: pH 4, 0.2 mg/ml; for Normalized purity after 7 days, 40° C., pH 6: pH 6, 0.2 mg/ml; for Normalized purity after 7 days, 40° C., pH 7.5: pH 7.5, 0.2 mg/ml; for Normalized purity after 7 days, 40° C., pH 9: pH 9, 0.2 mg/ml
Outline: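 Purity after 7 days at 40° C is expressed relative to T=0 (set to 100) for each pH. Samples at 0.2 mg/ml, pH 4, 6, 7.5 or 9, analyzed by RP-HPLC with UV 220 nm on C8 (ammonium formate) or C18 (TFA) gradients.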

[2] = molecular target: T1, human calcitonin receptor (hCTR2) (Homo sapiens, UniProt P30988); assay: hCTR2 cAMP assay (AlphaScreen) in COS7 cells; format: cell-based; details: cAMP induction, COS7 cells expressing hCTR2; Table 1; read-out: hCTR2 EC50
T1 construct: expressed in transfected cells
T1 sequence (P30988 25-474): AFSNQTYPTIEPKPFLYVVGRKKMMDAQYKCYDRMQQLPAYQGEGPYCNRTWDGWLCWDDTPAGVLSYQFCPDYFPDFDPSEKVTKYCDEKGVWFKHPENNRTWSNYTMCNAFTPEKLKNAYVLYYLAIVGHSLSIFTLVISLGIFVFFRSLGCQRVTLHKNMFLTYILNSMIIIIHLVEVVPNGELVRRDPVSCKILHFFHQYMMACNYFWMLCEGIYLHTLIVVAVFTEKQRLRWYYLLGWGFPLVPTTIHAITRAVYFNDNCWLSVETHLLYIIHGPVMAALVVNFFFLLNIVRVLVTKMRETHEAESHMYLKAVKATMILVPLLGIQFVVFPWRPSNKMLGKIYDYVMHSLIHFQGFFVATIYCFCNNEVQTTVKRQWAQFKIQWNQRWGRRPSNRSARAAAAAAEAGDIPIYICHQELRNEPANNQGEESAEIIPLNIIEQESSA
Outline: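 cAMP induction, read by AlphaScreen after lysis, gives EC50 values via 4PL curve fitting. Peptides were applied at rising concentrations for 15 min at 37 °C, with IBMX and 0.1% casein in HEPES-buffered Tyrode pH 7.4, to COS7 cells (no endogenous RAMPs) stably expressing human CTR2.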

[3] = Pharmacokinetic (PK) profiling in rats; format: in vivo, rat; design: CI/F (apparent clearance values): unit not given here; details: Sprague Dawley male rats, single sc 30 nmol/kg
Procedure: Sprague Dawley male rats were given a single subcutaneous (sc) bolus of each peptide to be tested, as specified below. 30 nmol/kg doses of compound were administered. Blood samples were drawn from the tail vein prior to dosing and at 24, 48, 72, 96 and 168 hours after dosing. Blood samples were taken from two rats at each time point, and only 2 blood samples were drawn from each rat, i.e. […] were used for each compound. The rats were euthanized immediately after the last blood sampling by concussion and cervical dislocation.
The dosing vehicle used for each test peptide was a mannitol-containing histidine buffer (pH 7.0). Plasma samples were analyzed after precipitation with ethanol by liquid chromatography mass spectrometry (LC-MS/MS). Mean plasma concentrations were used for calculation of the pharmacokinetic parameters using the non-compartmental approach in Phoenix WinNonlin 6.3.
Plasma terminal elimination half-life (t1/2) was determined as ln(2)/λz, where λz is the magnitude of the slope of the log linear regression of the log concentration versus time profile during the terminal phase. Apparent clearance (CL/F) was determined as dose/AUCinf (sc), where AUCinf is the area under the plasma concentration vs. time curve extrapolated to infinity (AUCinf=AUClast+Clast/λz, where Clast is the last observed plasma concentration).

[4] = Assessment of physical stability (Thioflavin T fibrillation); format: physicochemical; design: key: FND = fibrillation not detected; FD = fibrillation detected; details: 1 mg/ml, 40° C., ThT; for Fibrillation pH 4.0 (Ac): 50 mM acetate buffer pH 4.0, 96 hours; for Fibrillation pH 7.0 (His): 50 mM histidine buffer pH 7.0, 96 hours; for Fibrillation pH 7.0 (Phos.): 50 mM phosphate buffer pH 7.0, 96 hours
Outline: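 Fibrillation lag-time, in hours, taken where regressions of the initial stable phase and the growth phase intersect. ThT (40 μM) fluorescence monitored at 40 °C for 96 h, 10-min reads each preceded by 300 s mixing. Peptide at 1 mg/ml in 50 mM buffers: phosphate or histidine pH 7.0, acetate pH 4.0.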

[5] = molecular target: T2, human amylin receptor 3 (hAMYR3), hCTR2 co-expressed with hRAMP3 (Homo sapiens, UniProt O60896+P30988); assay: hAMYR3 cAMP assay (AlphaScreen) in COS7 cells; format: cell-based; details: cAMP induction, COS7 cells expressing hAMYR3; Table 1; read-out: hAMYR3 EC50
T2 construct: expressed in transfected cells
T2 sequence (P30988 25-474): T1 sequence (P30988 25-474)
T2 sequence (O60896 24-148 partner): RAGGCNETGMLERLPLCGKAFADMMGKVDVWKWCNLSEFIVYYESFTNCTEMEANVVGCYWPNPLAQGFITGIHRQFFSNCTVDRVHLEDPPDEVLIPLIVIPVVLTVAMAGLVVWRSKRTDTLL
Outline: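 EC50 values derive from 4PL curve fits of cAMP (AlphaScreen) in lysates of RAMP-naive COS7 cells stably carrying hCTR2 plus hRAMP3. Peptide dilution series were applied for 15 min at 37 °C in pH 7.4 Tyrode buffer containing 100 µM IBMX and 0.1% casein.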

Normalized purity after 7 days, 40° C., pH 4 [1] | Normalized purity after 7 days, 40° C., pH 6 [1] | Normalized purity after 7 days, 40° C., pH 7.5 [1] | Normalized purity after 7 days, 40° C., pH 9 [1] | EC50 [2] | CI/F (apparent clearance values) [3] | Fibrillation pH 4.0 (Ac) [4] | Fibrillation pH 7.0 (His) [4] | Fibrillation pH 7.0 (Phos.) [4] | EC50 [5] | SMILES
A (A = >90%) | B (B = 70-90%) | B (B = 70-90%) | B (B = 70-90%) | 0.099 nM | 0.0096 | FND | FD | FD | – | CC[C@H](C)[C@@H](C(=O)N[C@@H](CC(C)C)C(=O)N[C@@H](CO)C(=O)N[C@@H](CO)C(=O)N[C@H](C(=O)N[C@@H](CCC(=O)O)C(=O)N[C@H](C(=O)NCC(=O)N[C@@H](CO)C(=O)N[C@@H](CO)C(=O)N[C@H](C(=O)N1C[C@H](O)C[C@H]1C(N)=O)[C@@H](C)O)C(C)C)[C@@H](C)O)N(C)C(=O)[C@H](C)NC(=O)CN(C)C(=O)[C@H](Cc1ccccc1)NC(=O)[C@H](CO)NC(=O)[C@H](CO)NC(=O)[C@H](CCCNC(=N)N)NC(=O)[C@@H](NC(=O)[C@H](CC(C)C)NC(=O)[C@H](Cc1ccccc1)NC(=O)[C@H](Cc1c[nH]cn1)NC(=O)[C@H](C)NC(=O)[C@H](CC(C)C)NC(=O)[C@H](CCCNC(=N)N)NC(=O)[C@H](CCC(=O)O)NC(=O)[C@@H](NC(=O)[C@H](C)NC(=O)[C@@H]1CSSC[C@H](NC(=O)[C@H](CCCNC(=N)N)NC(=O)CC[C@H](NC(=O)CCCCCCCCCCCCCCCCCCC(=O)O)C(=O)O)C(=O)NCC(=O)N[C@@H]([C@@H](C)O)C(=O)N[C@@H](C)C(=O)N[C@@H]([C@@H](C)O)C(=O)N1)[C@@H](C)O)[C@@H](C)O [Compound 9, [19CD]-isoGlu-R-C( )-GTAT-C( )-ATERLAHFLTRSSF-Gly(Me)-A-Ile(Me)-LSSTEVGSST-Hyp-NH2] ({C20 diacid-γGlu}-RCGTATCATERLAHFLTRSSF[Sar]A[NMeI]LSSTEVGSST[Hyp]-NH2; disulfide 2-7)
A (A = >90%) | B (B = 70-90%) | A (A = >90%) | B (B = 70-90%) | – | 0.0118 | FND | FD | FD | 0.2 nM | CC[C@H](C)[C@@H](C(=O)N[C@@H](CC(C)C)C(=O)N[C@@H](CO)C(=O)N[C@@H](CO)C(=O)N[C@H](C(=O)N[C@@H](CCC(=O)O)C(=O)N[C@H](C(=O)NCC(=O)N[C@@H](CO)C(=O)N[C@@H](CCCN)C(=O)N[C@H](C(=O)N1C[C@H](O)C[C@H]1C(N)=O)[C@@H](C)O)C(C)C)[C@@H](C)O)N(C)C(=O)[C@H](C)NC(=O)CN(C)C(=O)[C@H](Cc1ccccc1)NC(=O)[C@H](CO)NC(=O)[C@H](CO)NC(=O)[C@H](CCCNC(=N)N)NC(=O)[C@@H](NC(=O)[C@H](CC(C)C)NC(=O)[C@H](Cc1ccccc1)NC(=O)[C@H](Cc1c[nH]cn1)NC(=O)[C@H](C)NC(=O)[C@H](CC(C)C)NC(=O)[C@H](CCCNC(=N)N)NC(=O)[C@H](CCC(=O)O)NC(=O)[C@@H](NC(=O)[C@H](C)NC(=O)[C@@H]1CSSC[C@H](NC(=O)[C@H](CCCNC(=N)N)NC(=O)CC[C@H](NC(=O)CCCCCCCCCCCCCCCCCCC(=O)O)C(=O)O)C(=O)NCC(=O)N[C@@H]([C@@H](C)O)C(=O)N[C@@H](C)C(=O)N[C@@H]([C@@H](C)O)C(=O)N1)[C@@H](C)O)[C@@H](C)O [Compound 11, [19CD]-isoGlu-R-C( )-GTAT-C( )-ATERLAHFLTRSSF-Gly(Me)-A-Ile(Me)-LSSTEVGS-Orn-T-Hyp-NH2] ({C20 diacid-γGlu}-RCGTATCATERLAHFLTRSSF[Sar]A[NMeI]LSSTEVGS[Orn]T[Hyp]-NH2; disulfide 2-7)
A (A = >90%) | A (A = >90%) | A (A = >90%) | A (A = >90%) | – | 0.0106 | FND | FD | FD | 0.38 nM | CC[C@H](C)[C@@H](C(=O)N[C@@H](CC(C)C)C(=O)N[C@@H](CO)C(=O)N[C@@H](CO)C(=O)N[C@H](C(=O)N[C@@H](CCC(=O)O)C(=O)N[C@H](C(=O)NCC(=O)N[C@@H](CO)C(=O)NCC(=O)N[C@H](C(=O)N1C[C@H](O)C[C@H]1C(N)=O)[C@@H](C)O)C(C)C)[C@@H](C)O)N(C)C(=O)[C@H](C)NC(=O)CN(C)C(=O)[C@H](Cc1ccccc1)NC(=O)[C@H](CO)NC(=O)[C@H](CO)NC(=O)[C@H](CCCNC(=N)N)NC(=O)[C@@H](NC(=O)[C@H](CC(C)C)NC(=O)[C@H](Cc1ccccc1)NC(=O)[C@H](Cc1c[nH]cn1)NC(=O)[C@H](C)NC(=O)[C@H](CC(C)C)NC(=O)[C@H](CCCNC(=N)N)NC(=O)[C@H](CCC(=O)O)NC(=O)[C@@H](NC(=O)[C@H](C)NC(=O)[C@@H]1CSSC[C@H](NC(=O)[C@H](CCCNC(=N)N)NC(=O)CC[C@H](NC(=O)CCCCCCCCCCCCCCCCCCC(=O)O)C(=O)O)C(=O)NCC(=O)N[C@@H]([C@@H](C)O)C(=O)N[C@@H](C)C(=O)N[C@@H]([C@@H](C)O)C(=O)N1)[C@@H](C)O)[C@@H](C)O [Compound 13, [19CD]-isoGlu-R-C( )-GTAT-C( )-ATERLAHFLTRSSF-Gly(Me)-A-Ile(Me)-LSSTEVGSGT-Hyp-NH2] ({C20 diacid-γGlu}-RCGTATCATERLAHFLTRSSF[Sar]A[NMeI]LSSTEVGSGT[Hyp]-NH2; disulfide 2-7)
